Data published in US20180348231A1, “LIGAND INDUCIBLE POLYPEPTIDE COUPLER SYSTEM” (Intrexon Corporation, priority 2015, published 2018).
“Also recorded” adds a separate entry of the source.

T1: Cluc_RxR
T1 construct: Expressed in transfected 293T cells
T1 chain: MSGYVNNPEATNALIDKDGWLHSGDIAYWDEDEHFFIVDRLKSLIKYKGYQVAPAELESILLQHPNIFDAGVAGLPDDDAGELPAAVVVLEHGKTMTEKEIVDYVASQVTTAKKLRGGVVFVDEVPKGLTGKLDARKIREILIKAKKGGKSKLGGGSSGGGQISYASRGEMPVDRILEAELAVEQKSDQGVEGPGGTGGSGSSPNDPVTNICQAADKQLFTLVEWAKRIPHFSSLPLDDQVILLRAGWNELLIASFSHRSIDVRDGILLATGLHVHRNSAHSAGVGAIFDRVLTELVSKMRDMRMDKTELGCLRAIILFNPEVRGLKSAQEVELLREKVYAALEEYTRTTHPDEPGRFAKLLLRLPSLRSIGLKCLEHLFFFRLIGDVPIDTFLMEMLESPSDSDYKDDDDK


How the values were obtained:
[1] = system: 293T cells; assay: Bioluminescence assay, mock (no vector), activating ligand alone; assay type: cell-based; conditions: negative control, no split fLuc vectors; FIG. 7
Experimental: (§1) A day before transfection, 10,000 cells (293T cells) were plated into each well of a 96 well plate containing 100 μl of growth medium (Dulbecco's Modified Eagle's Medium with 10% Fetal Bovine Serum) without antibiotics. Plasmids in pairs, RxR Nluc with Cluc EcR and EcR_ Nluc with Cluc_ RxR (see FIG. 8; amino acid sequences for the constructs depicted in FIG. 8 are provided as SEQ ID NOs: 87-92, respectively. SEQ ID NOs: 91 and 92 correspond to the EcR and RXR amino sequences, respectively, employed in the constructs of FIG. 8), were transfected with Lipofectamine® 2000, according to manufacturer's specifications. Briefly, individual plasmid DNA (0.2 μg) and 0.5 μl of Lipofectamine 2000® was diluted in 25.0 μl of OptiMEM® I Reduced Serum Medium and incubated for 5 minutes at room temperature, volumes were doubled for co-transfections. Diluted plasmid DNA was combined with diluted Lipofectamine® 2000 and incubated for 20 minutes at room temperature. 50 μl of the DNA/Lipofectamine® 2000 complex was added to each well of the 96 well plate. Cells were incubated at 37° C. in a 5% CO2 incubator for 24 hours, prior to addition of the activating ligand Veledimex.
Twenty four hours (24hrs) post-transfection, cell culture media from each well of the 96-well plate was replaced with 100 nM Veledimex activating ligand and Dimethyl sulfoxide-DMSO (negative control). […]

[2] = biological target: T2, RxR domains (Homo sapiens, UniProt P28702, A451V/A495S/C475T/D450E/E481D/K452R/K476R/K478T/K511R/N456S/P457A/Q477T/Q482E/Q483P/S455K/S458Q/S470A/T473E/T516V/V462L/Y479H); assay: Split fLuc bioluminescence assay, RxR homodimerization; assay type: cell-based; conditions: FIGS. 11 and 12
T2 construct: expressed in transfected cells
Experimental: (§2) Experiments were performed to test if nuclear receptor domains (i.e., EcR and RxR polypeptides) could be induced to homodimerize upon addition of ligand (FIGS. 11 and 12). STAT1 was used as control polypeptide since it is reported to self dimerize independent of ligand addition. Abbreviations in the figures are:
“RxR” is Retinoid X receptor;

[3] = system: split fLuc fused to EcR and RXR domains; assay: Split firefly luciferase (fLuc) bioluminescence assay, EcR-RXR ligand inducible polypeptide coupler; assay type: cell-based
Experimental: (§3) HEK293 cells were transfected with the split fLuc fused to EcR and RXR domains as follows:
as §1, with “Veledimex. […]” for “Veledimex.”

[4] = biological target: T3, STAT1 (Homo sapiens, UniProt P42224); assay: Split fLuc bioluminescence assay, STAT1 positive control; assay type: cell-based; conditions: Ligand − and +, FIG. 7
T3 construct: expressed in transfected cells; host or cells: HEK293 / 293T cells

[5] = system: EcR_Nluc+Cluc_EcR; assay: Split fLuc bioluminescence assay, EcR-EcR homodimerization; assay type: cell-based; conditions: upon ligand addition, FIGS. 11 and 12
Experimental: as §2
“EcR-EcR” means “EcR_Nluc+Cluc_EcR” which is a luciferase polypeptide split into two halves, such that an EcR polypeptide is fused to the N-terminus of a luciferase polypeptide fragment (EcR_Nluc) and another fragment of luciferase has an EcR polypeptide fused to its C-terminal end (Cluc_EcR); thereby activating luciferase (generation of bioluminescence) upon EcR homodimerization;

[6] = biological target: T1, Cluc_RxR; assay: split firefly luciferase complementation, with and without Veledimex
Experimental: as §3
as §1, with “CO₂” for “CO2”, “Veledimex. […]” for “Veledimex.”

T3 sequence (P42224 with tags, fused parts or gaps): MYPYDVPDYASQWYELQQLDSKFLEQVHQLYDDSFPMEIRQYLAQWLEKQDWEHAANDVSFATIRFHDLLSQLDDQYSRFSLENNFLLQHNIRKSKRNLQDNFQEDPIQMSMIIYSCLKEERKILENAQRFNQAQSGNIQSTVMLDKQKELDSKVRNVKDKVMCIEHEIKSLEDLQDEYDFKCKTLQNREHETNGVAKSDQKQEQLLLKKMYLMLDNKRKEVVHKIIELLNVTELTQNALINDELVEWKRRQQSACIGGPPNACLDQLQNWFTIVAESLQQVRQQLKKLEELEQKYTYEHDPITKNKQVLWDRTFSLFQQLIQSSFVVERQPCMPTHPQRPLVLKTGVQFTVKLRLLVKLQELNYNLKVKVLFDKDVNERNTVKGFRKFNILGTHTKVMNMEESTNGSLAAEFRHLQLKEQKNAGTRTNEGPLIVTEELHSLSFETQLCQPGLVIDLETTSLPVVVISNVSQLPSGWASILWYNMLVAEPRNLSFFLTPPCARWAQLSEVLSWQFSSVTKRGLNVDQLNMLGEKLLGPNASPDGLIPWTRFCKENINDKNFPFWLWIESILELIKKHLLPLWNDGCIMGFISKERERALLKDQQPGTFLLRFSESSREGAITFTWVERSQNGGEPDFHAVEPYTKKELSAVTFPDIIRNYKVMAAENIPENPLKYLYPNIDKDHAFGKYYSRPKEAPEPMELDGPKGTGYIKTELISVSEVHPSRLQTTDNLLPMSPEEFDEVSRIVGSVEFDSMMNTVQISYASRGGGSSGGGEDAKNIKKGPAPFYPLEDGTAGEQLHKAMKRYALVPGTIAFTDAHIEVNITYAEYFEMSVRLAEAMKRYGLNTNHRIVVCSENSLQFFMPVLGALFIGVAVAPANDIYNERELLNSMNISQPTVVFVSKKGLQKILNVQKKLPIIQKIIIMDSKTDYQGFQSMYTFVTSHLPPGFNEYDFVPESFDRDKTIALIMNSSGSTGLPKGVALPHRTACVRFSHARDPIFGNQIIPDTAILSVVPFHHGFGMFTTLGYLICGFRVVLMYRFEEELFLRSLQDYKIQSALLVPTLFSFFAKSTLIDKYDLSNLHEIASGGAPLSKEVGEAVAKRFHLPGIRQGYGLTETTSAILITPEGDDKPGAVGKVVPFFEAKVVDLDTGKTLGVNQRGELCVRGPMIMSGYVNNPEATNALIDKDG
T3 sequence (P42224 with tags, fused parts or gaps): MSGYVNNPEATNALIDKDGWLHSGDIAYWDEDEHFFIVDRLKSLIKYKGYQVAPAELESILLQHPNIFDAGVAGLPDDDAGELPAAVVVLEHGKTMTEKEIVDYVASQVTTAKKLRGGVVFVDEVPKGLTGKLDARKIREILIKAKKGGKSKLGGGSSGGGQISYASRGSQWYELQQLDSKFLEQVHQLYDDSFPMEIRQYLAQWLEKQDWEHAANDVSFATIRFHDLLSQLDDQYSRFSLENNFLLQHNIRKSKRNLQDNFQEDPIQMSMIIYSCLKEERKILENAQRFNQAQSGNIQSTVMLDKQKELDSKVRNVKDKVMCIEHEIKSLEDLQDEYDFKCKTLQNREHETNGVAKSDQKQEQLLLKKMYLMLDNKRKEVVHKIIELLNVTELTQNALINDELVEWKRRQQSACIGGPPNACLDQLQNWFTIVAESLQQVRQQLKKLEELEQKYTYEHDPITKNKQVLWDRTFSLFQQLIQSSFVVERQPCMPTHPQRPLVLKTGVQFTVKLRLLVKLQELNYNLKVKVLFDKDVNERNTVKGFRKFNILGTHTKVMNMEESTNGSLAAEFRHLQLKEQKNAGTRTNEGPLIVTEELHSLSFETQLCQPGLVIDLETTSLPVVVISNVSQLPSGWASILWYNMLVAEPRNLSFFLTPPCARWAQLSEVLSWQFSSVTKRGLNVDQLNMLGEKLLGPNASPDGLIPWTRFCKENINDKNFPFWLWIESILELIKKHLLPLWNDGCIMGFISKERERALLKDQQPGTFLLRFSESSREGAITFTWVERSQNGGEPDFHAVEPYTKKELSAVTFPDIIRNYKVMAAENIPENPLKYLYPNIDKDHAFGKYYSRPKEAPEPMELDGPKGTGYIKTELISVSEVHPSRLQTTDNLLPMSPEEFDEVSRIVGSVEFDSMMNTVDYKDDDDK

Row | binding result [6] | Molecule | fLuc reading, activating ligand alone [1] | RxR domain homodimerization (bioluminescence) [2] | RxR-EcR heterodimerization (bioluminescence) ([3]; EcR_Nluc+Cluc_RXR, Example 2, FIGS. 11 and 12) | fLuc signal (bioluminescence) ([3]; cells transfected with split fLuc fused to EcR and RXR, 100 nM Veledimex, 6 hours after addition, FIG. 7, listed as activating ligand) | Signal of the positive control (STAT1 split fLuc) [4] | EcR domain homodimerization (bioluminescence) [5]
1 | – | CCC[C@@H](N(NC(=O)c1cccc(OC)c1CC)C(=O)c1cc(C)cc(C)c1)C(C)(C)C [Veledimex] | only background readings | homodimerize independent of ligand | strongest signal (bioluminescence) was observed | fLuc signal was detected; also recorded: a clear fLuc signal is generated; also recorded: drives split fLuc signal only in the presence of activating ligand | unaffected | statistically significant homodimerization of EcR domains
2 | binds | RxR Nluc (other, also called R×R Nluc; RXR-fLuc) MDYKDDDDKEMPVDRILEAELAVEQKSDQGVEGPGGTGGSGSSPNDPVTNICQAADKQLFTLVEWAKRIPHFSSLPLDDQVILLRAGWNELLIASFSHRSIDVRDGILLATGLHVHRNSAHSAGVGAIFDRVLTELVSKMRDMRMDKTELGCLRAIILFNPEVRGLKSAQEVELLREKVYAALEEYTRTTHPDEPGRFAKLLLRLPSLRSIGLKCLEHLFFFRLIGDVPIDTFLMEMLESPSDSQISYASRGGGSSGGGEDAKNIKKGPAPFYPLEDGTAGEQLHKAMKRYALVPGTIAFTDAHIEVNITYAEYFEMSVRLAEAMKRYGLNTNHRIVVCSENSLQFFMPVLGALFIGVAVAPANDIYNERELLNSMNISQPTVVFVSKKGLQKILNVQKKLPIIQKIIIMDSKTDYQGFQSMYTFVTSHLPPGFNEYDFVPESFDRDKTIALIMNSSGSTGLPKGVALPHRTACVRFSHARDPIFGNQIIPDTAILSVVPFHHGFGMFTTLGYLICGFRVVLMYRFEEELFLRSLQDYKIQSALLVPTLFSFFAKSTLIDKYDLSNLHEIASGGAPLSKEVGEAVAKRFHLPGIRQGYGLTETTSAILITPEGDDKPGAVGKVVPFFEAKVVDLDTGKTLGVNQRGELCVRGPMIMSGYVNNPEATNALIDKDG | – | – | – | – | – | –
